The test system of data set [1] is reconstituted human epidermis Epi-200 EpiDerm™. Nature of the data set: Release of IL-1α in the culture medium (ELISA). The following applies: 18-hour treatment; Tukey Kramer Multiple Comparisons Test.
Source text: Further information for better defining the irritation potential was obtained from subsequent measurement of the following parameters: • evaluation of the release, in the culture medium, of the lactate dehydrogenase (LDH), a cytoplasmic enzyme, release of which indicates loss of integrity of the cellular membrane; • evaluation of the release, in the culture medium, of pro-inflammatory cytokine by means of ELISA (Enzyme Linked Immunosorbent Assay).
Tissue used: EPI-200-SIT EpiDerm™
Culture medium: EPI-100-MM-HCF-60
(§1) Incubation conditions: +37° C. in a 5% CO2 atmosphere
(§2) Treatment with the sample: • continuous contact and incubation for 18 hours (single) • continuous contact and incubation for 7 days (double)
(§3) Application was carried out by applying about 1 cm^2 of sample (i.e. of the sheet according to the invention obtained as per the example given above) per insert.
Controls Performed for the First Evaluation (18 hours): • Negative control after 18 hours: inserts not treated • Positive control: inserts treated with 0.5% SDS (Sodium Dodecylsulphate) in sterile water during 18 hours of incubation; […]
Evaluation in the culture medium obtained after the period of incubation of the sample with EPI-200. The release is measured by means of specific ELISA.
For data set [2] the test system is unchanged. The data set is described as follows: Cytotoxicity by release of lactate dehydrogenase (LDH) in the culture medium. The following applies: 18-hour treatment; Tukey Kramer Multiple Comparisons Test.
Procedure: Tissue used: EPI-200-SIT EpiDerm™
Culture medium: EPI-100-MM-HCF-60
as §1, §2, §3
(§4) Controls Performed for the First Evaluation (18 hours): • Negative control after 18 hours: inserts not treated • Positive control: inserts treated with 0.5% SDS (Sodium Dodecylsulphate) in sterile water during 18 hours of incubation;
(§5) Controls Performed for the 7-Day Evaluation: • Negative control: inserts not treated with the sample and kept for 7 days in the same incubation conditions as those treated with the sample.
Evaluation of the Cytotoxicity by Means of Measurement of the Release of the Lactate Dehydrogenase (LDH) in the Culture Medium:
Evaluation in the culture medium obtained after the incubation period of the sample with the epidermis model. The culture medium is incubated with a specific reagent so as to allow quantitive determination of the lactate dehydrogenase at 490 nm.
Data set [3] shares this test system. Nature of the data set: Cellular vitality by MTT assay on reconstituted epidermis (EpiDerm Skin Irritation Test, cumulative irritation). The following applies: 18-hour treatment. Background: Tetrazolium dyes change colour on reduction, which living cells bring about.
Procedure: The assay in question was based on the In vitro Epiderm™ Skin Irritation Test (EPI-200-SIT) developed by the MatTek Corporation, which uses the model of reconstituted human epidermis Epi-200 EpiDerm™.
The assay consists in topical application of the material under testing on the reconstituted epidermis for contact times equal to or greater than 18 hours. The irritation potential is determined by means of evaluation of the cellular vitality using the MTT assay.
Tissue used: EPI-200-SIT EpiDerm™
Culture medium: EPI-100-MM-HCF-60
as §1, §2, §4, §5
MTT assay: colorimetric determination of the vitality of the keratinocytes of the insert based on the reduction of the yellow tetrazolium salts (MTT) to blue formazan by mitochondrial dehydrogenases.
continuous stimulation (overnight contact and incubation)

Consider one molecule from patent US20160089471A1, “SHEET FOR CUTANEOUS APPLICATION CONTAINING VITAMIN E OR AN ESTER THEREOF” (BIO.LO.GA. S.R.L., priority 2013, published 2016).

On to `CCCCCCCCCCCCOS(=O)(=O)[O-].[Na+]` [Positive control, Sodium Dodecylsulphate], for which, in data set [1], the “Statistical comparison of IL-1α release in relation to the negative control” value is reported as “*** (*** p < 0.001 extremely significant variation)”. Further, the “Statistical comparison of LDH release in relation to the negative control” value in data set [2] is given as “*** (*** p < 0.001 extremely significant variation)”. The “Average value of OD ± SD” value in data set [3] (continuous contact) worked out at 0.185 ± 0.004. For the same molecule, the “Average value of the % vitality” value in data set [3] (relative to negative control = 100%) turned out to be 8.40 ± 0.17%.
